Experiments:
[1] = system: MCF7 human breast adenocarcinoma cells; assay: MTT cytotoxicity assay, MCF7 cells; format: cell-based
Procedure: (§1) The stability of [1]-Cl-[4]-Cl was evaluated in aqueous phosphate-buffered solution (PBS, pH 7.4) using UV–visible spectroscopy. […] The cytotoxicity of the compounds was measured according to a standard MTT assay against human breast cancer (MCF7 and MCF7CR) and ovarian cancer (A2780 and A2780cis) cell lines, and also nontumorigenic MCF10A and human embryonic kidney HEK293T cells (Table ).
(§2) All cell lines were grown in a humidified 5% CO2 environment at 37 °C in dedicated media. Growth media comprised minimum essential medium (MEM) supplemented with 10% FBS, 1% sodium pyruvate, antibiotics, and antimycotic agents for MCF7. MCF10A cells were cultured in a DMEM/F12 Ham’s mixture supplemented with 5% equine serum, 20 ng/mL EGF, 10 μg/mL insulin, […], antibiotics, and antimycotics. MCF7-CR cells were grown in minimum essential medium (MEM), 10% FBS supplemented with 0.1 mg/mL cisplatin, sodium pyruvate, antibiotics, and antimycotics. A2780 and A2780cis cells were cultured in RPMI 1640 GlutaMAX, and HEK293T cells were cultured in DMEM GlutaMAX medium containing 10% heat-inactivated FBS and antibiotics. The effect exerted on cell viability by the compounds was determined using the 3-(4,5-dimethylthiazol-2-yl)-2,5-diphenyltetrazolium bromide (MTT) assay. After individual treatments with 0–100 μM of the compound for 72 h, MTT was added to the culture media at a final concentration of 0.5 mg/mL and incubated for 2 h at 37 °C. Cisplatin was used as a positive control. The medium was replaced with 100 μL of DMSO, and after 10 min, the optical density was recorded at 550 nm on a microplate reader. At least six cultures were used for each data point. Chemicals (Merck-Sigma, Milan, Italy) and plasticware (Corning, Milan, Italy) were cell culture grade.

[2] = system: MCF7-CR cisplatin-resistant breast cancer cells; assay: MTT cytotoxicity assay, MCF7CR cells; format: cell-based, human; settings: 72 h exposure, mean ± SD of three experiments
Procedure: as §1, §2

[3] = system: MCF10A nontumorigenic cells; assay: MTT cytotoxicity assay, MCF10A cells; format: cell-based, human; settings: 72 h exposure, mean ± SD of three experiments
Procedure: as §1, §2

[4] = system: A2780 human ovarian carcinoma cells; assay: MTT cytotoxicity assay, A2780 cells; format: cell-based
Procedure: as §1, §2

[5] = system: A2780cis cisplatin-resistant ovarian cancer cells; assay: MTT cytotoxicity assay, A2780cis cells; format: cell-based, human; settings: 72 h exposure, mean ± SD of three experiments
Procedure: as §1, §2

[6] = system: HEK293T human embryonic kidney cells; assay: MTT cytotoxicity assay, HEK293T cells; format: cell-based; settings: 72 h exposure, mean ± SD of three experiments
Procedure: as §1, §2

dsDNA oligomer = assay: SPR biosensor binding to surface-anchored dsDNA oligomer; settings: surface-blocked DNA oligomer
Procedure: The DNA binding ability of curcuminoid ligands and their complexes was evaluated by using a Surface plasmon resonance (SPR) biosensor. The monoexponential nature of binding kinetics for all the compounds is consistent with the presence of a single high-affinity site on DNA (Figure ).
The binding kinetics/affinities of the molecules of interest for DNA were studied according to a previously described biosensor-based method. Briefly, streptavidin was anchored to a carboxylate surface via EDC/NHS chemistry, and 5′-biotinylated dsDNA oligomer (sequence: 3′-[…]-5′) was coupled to surface-blocked streptavidin. Compounds were independently added to the DNA-coated surface at different concentrations, each time following binding kinetics up to equilibrium. PBS buffer was used for both the dissociation and the regeneration steps. Experimental data were fitted to both mono- and biexponential models, and the validity of each model was assessed by a standard F-test procedure. The binding sites on DNA were mapped according to independent competitive binding assays individually using a minor groove binder (GelRed) and a major groove binder (methyl green), respectively. Briefly, GelRed displacement was monitored by comparing the emission spectra of solutions containing different concentrations of curcuminoid-like ligands/complexes (0–100 μM), 20 μM DNA, and GelRed (10 μM) in 10 mM phosphate buffer, pH 7.4. Similarly, methyl green displacement assay was performed by monitoring the absorbance at 630 nm upon addition of candidate competitors (0–100 μM), 100 μM DNA, and methyl green (10 μM) in 50 mM Tris–HCl buffer and 7.5 mM MgSO4, pH 7.5.

[7] = target: 20S proteasome chymotrypsin-like activity (Homo sapiens, UniProt P28074); assay: Isolated 20S proteasome, chymotrypsin-like activity (Suc-Leu-Leu-Val-Tyr-AMC); format: biochemical; settings: 0–100 μM, 1 h, 37 °C, pH 8.0
Procedure: (§3) Proteasome inhibition by the compounds was evaluated with respect to three major activities of the 20S proteasome, namely, chymotrypsin-like, trypsin-like, and caspase-like activities.
(§4) The effect of the compounds on the activity of the isolated 20S proteasome was tested using specific synthetic fluorogenic peptide substrates (Suc-Leu-Leu-Val-Tyr-AMC, Z-Leu-Ser-Thr-Arg-AMC, and Z-Leu-Leu-Glu-AMC for chymotrypsin-like, trypsin-like, and peptidyl glutamyl peptide hydrolase activity, respectively) as reported elsewhere. Briefly, individual mixtures consisting of the compounds (0–100 μM), 1 μg of isolated 20S proteasome, the specific substrate, and 50 mM Tris–HCl pH 8.0 up to a final volume of 100 μL were incubated at 37 °C, and after 1 h, the fluorescence measurements of the hydrolyzed AMC were recorded on a SpectraMax Gemini XPS microplate reader (λexc = 365 nm, λem = 449 nm).

[8] = target: 20S proteasome trypsin-like activity (Homo sapiens, UniProt Q99436); assay: Isolated 20S proteasome, trypsin-like activity (Z-Leu-Ser-Thr-Arg-AMC); format: biochemical; settings: 0–100 μM, 1 h, 37 °C, pH 8.0
Procedure: as §3, §4

[9] = target: 20S proteasome PGPH (caspase-like) activity (Homo sapiens, UniProt P28072); assay: Isolated 20S proteasome, peptidyl glutamyl peptide hydrolase (caspase-like) activity (Z-Leu-Leu-Glu-AMC); format: biochemical; settings: 0–100 μM, 1 h, 37 °C, pH 8.0
Procedure: as §3, §4

p62 = assay: Western blot quantification of p62 in MCF7 cells; format: cell-based, human; settings: 10 μM, 24 h
Procedure: Since no significant correlation emerged among cytotoxicity, DNA binding affinity, and proteasome inhibition, the effects of the treatment on the expression levels of p62 were evaluated. p62 is a multifunctional binding protein that is involved in signaling pathways of many cellular activities, including autophagy, whose abnormal expression is associated with malignancies, breast cancer in particular. […] This effect was more evident for the free ligand, in agreement with its higher cytotoxicity to breast cancer cells compared with that of the corresponding ruthenium complex (Figure ).
4 Representative autoradiographs (upper panel) and densitometric analyses (lower panel) of p62 levels in MCF7 cells treated with 10 μM of HZPbdcurc and [3]-Cl for 24 h (*p < 0.01 compared with the control; #p < 0.01 compared with [3]-Cl).
Semiquantitative analysis of p62 was performed by Western blotting upon individual 24 h treatments of MCF-7 cells with 10 μM of HZPbdcurc or [Ru(p-cym)(HZPbdcurc)-Cl]-Cl. Treated cells were lysed, and 15 μg of total protein was electrophoresed on 12% SDS-PAGE, then protein bands were electroblotted onto PVDF membranes (Millipore–Milan, Italy). After incubation with anti-p62 monoclonal antibody (Merck Sigma–Milan, Italy), the bands were immunodetected on a ChemiDoc MP imaging system (Bio-Rad - Milan, Italy). […] Western blot results were analyzed using Fiji software.

[10] = Solubility in water (qualitative); format: physicochemical
[11] = MTT, 72 h exposure, mean ± SD of three experiments

kass (dsDNA oligomer): 10281 ± 5155 M^–1s^–1
kdiss (dsDNA oligomer): 0.02 ± 0.01 s^–1
Kd (dsDNA oligomer; equilibrium dissociation constant): 2.2 ± 1.5 µM
IC50 [7]: > 100 µM
IC50 [8]: > 100 µM
IC50 [9]: > 100 µM
solubility in water [10]: partly soluble in H2O
Structure (SMILES): Cc1ccc(C(C)C)cc1.Oc1ccc(/C=C/c2cc(/C=C/c3ccc(O)cc3)n(-c3ccccn3)n2)cc1.[Cl-].[Cl][Ru+] [[3]Cl, [Ru(p-cym)(HZPbdcurc)Cl]Cl]
IC50 [1, 11]: 23 ± 6 µM
SI MCF7 MCF10A ([1]; selectivity index, values equal IC50 MCF10A / IC50 MCF7): 0.68
IC50 [2]: 31.9 ± 6 µM
IC50 [3]: 15.6 ± 8.9 µM
IC50 [4, 11]: 2 ± 0.1 µM
SI A2780 HEK293T ([4]; selectivity index, values equal IC50 HEK293T / IC50 A2780): 9.50
IC50 [5]: 2.7 ± 0.4 µM
IC50 [6]: 19 ± 2 µM
p62 levels (p62): an increase in the levels of p62 was observed

From paper PMC12153055 (Organometallics, 2025)
